Patent US20030110518A1, “Melanocortin-5 receptor sequences and uses thereof” (priority 2001, published 2003)

Key:
canine MC5R [1] = biological target: T1, canine MC5R (Canis lupus familiaris, UniProt A0A8I3MI44)
Description: The following example discloses the measurement of canine MC5R-mediated cAMP accumulation in response to α-MSH stimulation.
As described above, MC5R, when activated by its agonist ligand, stimulates adenylyl cyclase to form cAMP. A commercially available kit (Adenylyl Cyclase Activation Flashplate Assay, NEN® Life Science Products, Inc., Boston, Mass., Cat # SMP004, SMP004A) is used to measure cAMP accumulation. An MC5R/HEK293 cell line is prepared. Cells are harvested using Sigma dissociation buffer, washed, centrifuged and resuspended in stimulation buffer, which is provided in the kit (Sigma Chemical Co., St. Louis, Mo.). The suspended cells are counted using a hemacytometer. Cells are pelleted again by centrifugation and resuspended with stimulation buffer to the desired concentration (0.5-5×10^6 cells per ml). A cell volume titration is performed by transferring varying volumes in triplicate into wells. For each cell concentration tested, a full agonist dose titration is performed, including a negative control. The agonists employed include [Nle^4,D-Phe^7]-α-MSH(NDP-MSH) and α-MSH. […]
The duration of stimulation by agonist is also varied (15-45 minutes). […] Stimulation of MC5R is determined by scillintation counting in a Wallac MICROBETA® scintillation counter (EG&G Wallac, Gaithersburg, Md.).

canine MC5R [2] = biological target: T1, canine MC5R; experiment: Whole cell binding assay with radiolabeled NDP-MSH in transfected HEK293a cells; set-up: expressed in transfected cells; host or cells: HEK293 / HEK293a; settings: 75 pM label, 37° C., 1 hour; clones nos. 9 and 13; FIG. 5
Description: Transient transfection & Whole Cell Binding Assay. A 50% confluent cell culture plate containing HEK293 cells is used for transient transfection with various vector constructs using Fugene 6 as a transfection carrier (4 μl Fugene 6 per μg plasmid DNA). Cells are harvested 48 hours post transfection using Sigma dissociation buffer (Sigma Chemical Co., St. Louis, Mo.), then centrifuged and resuspended in binding buffer (50 mM HEPES, 5 mM MgCl, 0.1% BSA, pH 7.5, containing a Sigma P-8340 protease inhibitor cocktail). The resuspended cell population is counted using a hemacytometer. A cell volume titration is performed by pipetting varying volumes in triplicate into tubes. Either buffer or excess cold NDP-MSH (2 μM final conc.) is added. Excess cold NDP-MSH is used to ascertain non-specific binding. Radiolabeled (^125I) NDP-MSH is added such that the final concentration is 75 pM. The reaction is incubated at 37° C. for 1 hour, and then the reaction mixture is centrifuged at 5000×g for 10 minutes. The supernatant solution is removed by aspiration and radioisotope remaining with the cell pellet is counted in a gamma counter. FIG. 5 discloses the specific NDP-MSH binding to five canine MC5R/HEK293a cells (shown as “C5#_” in FIG. 5).

[3] = biological target: canine melanocortin 5 receptor (canine); experiment: cell-based or functional assay
Chain of canine melanocortin 5 receptor (canine) (chain, as listed by the source limits assumed): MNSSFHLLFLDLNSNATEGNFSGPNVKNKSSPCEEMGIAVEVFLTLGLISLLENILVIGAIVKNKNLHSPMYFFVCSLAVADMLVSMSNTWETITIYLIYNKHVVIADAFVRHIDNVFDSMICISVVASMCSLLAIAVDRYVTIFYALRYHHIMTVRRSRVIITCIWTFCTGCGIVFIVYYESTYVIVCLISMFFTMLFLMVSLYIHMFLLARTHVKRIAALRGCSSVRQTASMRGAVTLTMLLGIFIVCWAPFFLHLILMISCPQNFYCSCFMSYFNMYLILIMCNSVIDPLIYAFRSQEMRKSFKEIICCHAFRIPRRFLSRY

T1 sequence (A0A8I3MI44 1-325): as the sequence (chain, as listed by the source limits assumed) above, with Y100H, A314G counted along it

With “α-melanocyte stimulating hormone [α-MSH]” as the substance, how does the “sensitivity of MC5R clones to α-MSH compared with a MC4R clone” value (canine MC5R [1]; both MC5R clones versus a MC4R clone) read?
Its value is “more sensitive”.

What about the “stimulation of cAMP accumulation with α-MSH” value (canine MC5R [1]; three clones, FIG. 6) of the same substance?
The value was ≤ 8 fold.

Which “specific binding of radiolabeled (125I) NDP-MSH to canine MC5R/HEK293a cells” value (canine MC5R [2]) does the source give for [Nle4,D-Phe7]-α-MSH [NDP-MSH] here?
The value was “high level of specific binding”.

“α-melanocyte stimulating hormone (from UniProt P01189 138-150) (peptide)” was tested. Which EC50 of cAMP accumulation (Adenylyl Cyclase Activation Flashplate Assay), clone C9 [3] did it give?
The EC50 of cAMP accumulation (Adenylyl Cyclase Activation Flashplate Assay), clone C9 was 5 nM.

What about the fold stimulation of cAMP accumulation [3] of the same substance?
The fold stimulation of cAMP accumulation was < 8 fold.
